# BindingDB's records for doi:10.7270/Q2H70D5W (University of Pittsburgh, 2007)
# Target: Gag-Pol polyprotein (Human immunodeficiency virus type 1 group M subtype B (isolate HXB2), UniProt P04585)
# Assay: HIV-1 RT RNase H inhibitor potency, dose response, biochemical, probe assessment (AID 652)
# Details: pH 8; 23 °C
row,SMILES,IC50 [µM]
1,"Cc1cc(NC(=O)CSc2nc(C3CC3)nc3sc4c(c23)CCC(C)C4)no1 (stereo not given) [2-(2-Cyclopropyl-7-methyl-5,6,7,8-tetrahydro-benzo[4,5]thieno[2,3-d]pyrimidin-4-ylsulfanyl)-N-(5-methyl-isoxazol-3-yl)-acetamide]",5.41
2,"CC1(C)Cc2[nH]c(=S)c(C#N)cc2CO1 [7,7-dimethyl-2-sulfanylidene-5,8-dihydro-1H-pyrano[4,3-b]pyridine-3-carbonitrile]",4.03
3,COC(=O)N(c1ccccc1)P1(=S)OCCO1 [MLS000052970],2.06
4,CC(C)Sc1nc2sc3c(c2c2nnc(SCC(=O)NCc4ccco4)n12)CCCC3 [MLS000082957],3.01
5,"COc1cc(-c2nnc3sc(Cc4ccc(Cl)cc4)nn23)cc(OC)c1OC [6-(4-chlorobenzyl)-3-(3,4,5-trimethoxyphenyl)-[1,2,4]triazolo[3,4-b][1,3,4]thiadiazole]",1.08
6,"Cc1cc(C)cc(OCC(=O)Nc2nonc2NC(=O)COc2cc(C)cc(C)c2)c1 [2-(3,5-dimethylphenoxy)-N-[4-[2-(3,5-dimethylphenoxy)ethanoylamino]-1,2,5-oxadiazol-3-yl]ethanamide]",1.89
7,CC(C)c1ccc(C2CC(=O)N3CN(C)CSC3=C2C#N)cc1 (stereo not given) [MLS000117258],10.7
8,O=C(NC1CCS(=O)(=O)C1)c1c(NC(=O)C2COc3ccccc3O2)sc2c1CCCC2 (stereo not given) [MLS000077500],46.3
9,"C=CCn1c(SCC(=O)c2ccc(O)c(O)c2)nnc1-c1ccccc1OC [1-(3,4-dihydroxyphenyl)-2-[[5-(2-methoxyphenyl)-4-prop-2-enyl-1,2,4-triazol-3-yl]sulfanyl]ethanone]",2.57
10,c1ccc(-c2ccc(C3=Nc4ncnn4C(c4ccco4)C3)cc2)cc1 (stereo not given),14.5
11,"Cc1cc(-c2nn3c(-c4ccccc4)nnc3s2)c2ccccc2n1 [2-methyl-4-(3-phenyl[1,2,4]triazolo[3,4-b][1,3,4]thiadiazol-6-yl)quinoline]",2.6
12,"Cc1cccc(Nc2nnc(S)s2)c1C [5-(2,3-dimethylanilino)-3H-1,3,4-thiadiazole-2-thione]",3.59
13,Cc1sc(-n2c(C)cc(C=Nn3cnnc3)c2C)c(C#N)c1C,2.22
14,COc1cc(/N=c2/ssnc2Cl)cc(OC)c1OC [SMR000025034],0.281
15,"COc1cccc(-c2nnc(NC(=O)c3ccc(S(=O)(=O)N(CC(C)C)CC(C)C)cc3)o2)c1 [4-(diisobutylsulfamoyl)-N-[5-(3-methoxyphenyl)-1,3,4-oxadiazol-2-yl]benzamide]",4.77
16,"COc1ccc(OC)c(S(=O)(=O)Nc2ccc(O)c(Sc3nc[nH]n3)c2)c1 [N-[4-hydroxy-3-(1H-1,2,4-triazol-3-ylthio)phenyl]-2,5-dimethoxybenzenesulfonamide]",2.46
17,O=C(CSc1nc2sc3c(c2c(=O)n1-c1ccccc1)CCCC3)NCc1ccco1 [MLS000115858],17.2
18,"Cc1oc(-c2ccc(Cl)cc2)cc1-c1nn2c(-c3ccoc3C)nnc2s1 [6-[5-(4-chlorophenyl)-2-methyl-3-furanyl]-3-(2-methyl-3-furanyl)-[1,2,4]triazolo[3,4-b][1,3,4]thiadiazole]",1.18
19,"Cc1cc(NC(=O)CSc2ccc(-c3nc4cc(C)c(C)cc4[nH]3)cn2)no1 [2-[5-(5,6-Dimethyl-1H-benzoimidazol-2-yl)-pyridin-2-ylsulfanyl]-N-(5-methyl-isoxazol-3-yl)-acetamide]",16.7
20,"COc1cc(OC)c(C2CC(=O)N3CN(C)CSC3=C2C#N)cc1OC (stereo not given) [3-methyl-6-oxidanylidene-8-(2,4,5-trimethoxyphenyl)-2,4,7,8-tetrahydropyrido[2,1-b][1,3,5]thiadiazine-9-carbonitrile]",14.5
21,CCc1ccc(NC(=O)CSc2nc3cc(C(=O)OC)ccc3c(=O)n2Cc2ccco2)cc1 [2-[[2-(4-ethylanilino)-2-keto-ethyl]thio]-3-(2-furfuryl)-4-keto-quinazoline-7-carboxylic acid methyl ester],2.32
22,"O=C(Nc1ccc(N2CCOCC2)cc1)c1ccc2nc(-c3ccco3)c(-c3ccco3)nc2c1 [2,3-bis(2-furanyl)-N-[4-(4-morpholinyl)phenyl]-6-quinoxalinecarboxamide]",22.6
23,"CCCc1cc(C(=O)Nc2sc(C)c(C)c2C(=O)OCC)no1 [4,5-dimethyl-2-[(5-propylisoxazole-3-carbonyl)amino]thiophene-3-carboxylic acid ethyl ester]",2.53
24,"Clc1ccccc1-c1nn2c(-c3ccncc3)nnc2s1 [6-(2-chlorophenyl)-3-(4-pyridinyl)[1,2,4]triazolo[3,4-b][1,3,4]thiadiazole]",2.7
25,COc1ccc(S(=O)(=O)Nc2ccc(O)c3ccccc23)cc1 [4-methoxy-N-(4-oxidanylnaphthalen-1-yl)benzenesulfonamide],4.07
26,"Cc1sc2nc(C(C)Nc3ccccc3N3CCOCC3)[nH]c(=O)c2c1C (stereo not given) [5,6-dimethyl-2-[1-[2-(4-morpholinyl)anilino]ethyl]-3H-thieno[2,3-d]pyrimidin-4-one]",14.4
27,"Nc1sc2c(c1C(=O)NC1CCS(=O)(=O)C1)CCC2 (stereo not given) [2-Amino-5,6-dihydro-4H-cyclopenta[b]thiophene-3-carboxylic acid (1,1-dioxo-tetrahydro-1lambda*6*-thiophen-3-yl)-amide]",26.8
28,CCOC(=O)C1=C(C)N=c2s/c(=C3/C(=O)Nc4ccccc43)c(=O)n2C1c1ccc2c(c1)OCO2 (stereo not given) [SMR000072283],1.07

row,SMILES,IC50 [µM]
1,"Cc1ccnc(-n2sc3ccccc3c2=O)n1 [2-(4-methyl-2-pyrimidinyl)-1,2-benzothiazol-3-one]",1.17
2,"COCCSc1ccccc1C(=O)Nc1cc(C)on1 [2-(2-methoxyethylsulfanyl)-N-(5-methyl-1,2-oxazol-3-yl)benzamide]",10.8
3,"C=CCSc1nc2c(c(=O)[nH]c(=O)n2C)n1C(C)C [3-methyl-7-propan-2-yl-8-prop-2-enylsulfanylpurine-2,6-dione]",> 50
4,"COc1ccc(N2CCN(Cc3cc(=O)oc4cc(C)c(Cl)c(C)c34)CC2)cc1 [6-chloranyl-4-[[4-(4-methoxyphenyl)piperazin-1-yl]methyl]-5,7-dimethyl-chromen-2-one]",3.86
5,COc1cccc(OCC(=O)Nc2c(C(=O)Nc3ccc(OC)cc3OC)oc3ccccc23)c1 [MLS000093002],1.77
6,Cc1ccccc1OCc1nc(-c2ccc(NC(=O)c3ccc4c(c3)OCO4)cc2)no1 [MLS000047257],4.58
7,"Cc1ccccc1NC(=O)c1c(O)n2c3c(cccc3c1=O)CC2 [6-Hydroxy-4-oxo-1,2-dihydro-4H-pyrrolo[3,2,1-ij]quinoline-5-carboxylic acid o-tolylamide]",21.7
8,COc1ccccc1/N=c1\oc2c(OC)cccc2cc1C(=O)NCc1ccco1 [8-Methoxy-2-[(Z)-2-methoxy-phenylimino]-2H-chromene-3-carboxylic acid (furan-2-ylmethyl)-amide],3.13
9,"CCCc1nnc(NC(=O)CN2C(=O)c3ccccc3S2(=O)=O)s1 [2-(1,1-dioxido-3-oxo-1,2-benzisothiazol-2(3H)-yl)-N-(5-propyl-1,3,4-thiadiazol-2-yl)acetamide]",3.23
10,"O=C(O)/C=C/c1ccc(O)c(O)c1 [3,4-Dihydroxycinnamate, XVII]",> 50
11,"c1ccc(Cc2nnc3sc(-c4ccncc4)nn23)cc1 [3-(phenylmethyl)-6-pyridin-4-yl-[1,2,4]triazolo[3,4-b][1,3,4]thiadiazole]",1.81
12,"COc1ccc(OC)c(Nc2nc(-c3ccc(O)c(O)c3)cs2)c1 [4-[2-(2,5-Dimethoxy-phenylamino)-thiazol-4-yl]-benzene-1,2-diol]",1.48
13,Cc1ccc2c(c1C)NC(C(=O)O)C1CC=CC21 (stereo not given),1.03
14,N#Cc1cc(-c2ccccc2)nn1-c1ccccc1,0.876
15,"CCN(Cc1ccccc1)S(=O)(=O)c1ccc(C(=O)Nc2nnc(-c3ccccc3OC)o2)cc1 [4-[benzyl(ethyl)sulfamoyl]-N-[5-(2-methoxyphenyl)-1,3,4-oxadiazol-2-yl]benzamide]",8.96
16,"CCOc1cc(C2C(C#N)C(=N)SC(=N)C2C#N)ccc1OCCN1CCOCC1 (stereo not given) [2,6-bis(azanyl)-4-[3-ethoxy-4-(2-morpholin-4-ylethoxy)phenyl]-4H-thiopyran-3,5-dicarbonitrile]",31.5
17,"COc1ccc(-c2nsc(SCC(=O)Nc3cc(C)on3)n2)cc1 [2-[[3-(4-methoxyphenyl)-1,2,4-thiadiazol-5-yl]sulfanyl]-N-(5-methyl-1,2-oxazol-3-yl)acetamide]",3.01
18,"Cc1cc(NC(=O)CSc2nc3cc4c(cc3c(=O)n2CCc2ccccc2)OCO4)no1 [2-[(8-keto-7-phenethyl-[1,3]dioxolo[4,5-g]quinazolin-6-yl)thio]-N-(5-methylisoxazol-3-yl)acetamide]",4.79
19,"COc1ccccc1CNC(=O)c1cc2c(=O)n(C)c3ccccc3c2n1C [4-keto-1,5-dimethyl-N-o-anisyl-pyrrolo[3,2-c]quinoline-2-carboxamide]",24.7
20,"COC(=O)c1ccc2c(c1)N(Cc1nc(-c3cccc(C)c3)oc1C)C(=O)C1CCCN21 (stereo not given) [4-keto-5-[[5-methyl-2-(m-tolyl)oxazol-4-yl]methyl]-1,2,3,3a-tetrahydropyrrolo[1,2-a]quinoxaline-7-carboxylic acid methyl ester]",5.97
21,CCCc1cc(C(N)=O)c(NC(=O)C2CCCO2)s1 (stereo not given) [MLS000065925],1.89
22,"C=CCn1c(N)c(C(=O)NCCC2=CCCCC2)sc1=S [3-allyl-4-amino-N-(2-cyclohex-1-en-1-ylethyl)-2-thioxo-2,3-dihydro-1,3-thiazole-5-carboxamide]",3.82
23,"CC1CC(C)(C)NC(=S)S1 (stereo not given) [4,4,6-trimethyl-1,3-thiazinane-2-thione]",5.24
24,O=C(NC1CCCCC1)c1sc(=S)n2c1[nH]c(=O)c1ccccc12 [SMR000030293],0.645
25,O=C(CCN1C(=O)c2ccccc2C1=O)Nc1ccc(-c2nc3ccccc3o2)cc1 [MLS000051238],5.8
26,"Cc1cccc(C)c1NC(=O)CSCC(=O)c1ccc(O)c(O)c1 [2-[2-(3,4-dihydroxyphenyl)-2-oxoethyl]sulfanyl-N-(2,6-dimethylphenyl)acetamide]",3.8
27,"O=C(NCc1ccco1)c1cccnc1-c1nc2ccccc2s1 [2-(1,3-benzothiazol-2-yl)-N-(2-furanylmethyl)-3-pyridinecarboxamide]",3.26
